How the values were obtained:
Format in all cases: cell-based
[1] = system: CMK 6.4 cynomolgus monkey ES cells; assay: Screening of agents which promote cardiac muscle cell differentiation of monkey ES cells (α-MHC promoter-GFP, HCS); conditions: 96-well, about 1-5 μM compound/well added day 6-14, read at day 14 of culture
Description: As described in FIG. 1, screening of agents which promote cardiac muscle cell differentiation of monkey ES cells was performed. A vector expressing green fluorescent protein (GFP) under control of a promoter of a-MHC gene, a marker of cardiac muscle cell differentiation, was introduced into monkey ES cell line (CMK 6.4 cynomolgus monkey ES cells) and the cells were seeded on 96-well culture plates (Greiner/655090: 96 well FIA black plate) in 5.0×10^2 cells/well, and cultured for 14 days in a differentiation medium for cardiac muscle cell differentiation (200 ml IMDM (Sigma 13390) containing 50 ml bovine fetal serum (GIBCO 10099-141), 2.5 ml MEM non-essential amino acid solution (Sigma M7145), 2.5 ml penicillin-streptomycin (GIBCO 15140), 2.5 ml 200 mM L-glutamine, 2 μl 2-mercaptoethanol (Sigma M7522), 255 μl 5N NaOH 255 μl). During day 6-14 of culture, 9,600 library compounds were added into separate wells (about 1-5 μM compound/well). Then, at day 14 of culture, GFP expression was determined by using HCS (high contents screening) system (Molecular device/MetaMorph imaging system). As a result, GFP fluorescence intensity was high in the wells added with nitrovin (FIG. 2).

[2] = system: CMK 6.4 cynomolgus monkey ES cells; assay: Effect of nitrovin for promoting cardiac muscle cell differentiation of monkey ES cells
Description: As described in Example 1, a vector expressing green fluorescent protein (GFP) was introduced into monkey ES cell line (CMK 6.4 cynomolgus monkey ES cells). The monkey ES cells were seeded and cultured on 6-well culture plates (Asahi Glass/5816-006: Ezview culture plate) in 4.0×10^6 cells/well. The culture medium was the same as described in Example 1. At day 6 of culture, nitrovin was added at a final concentration of 1 μM, 5 μM, or 20 μM. At day 18 of culture, fluorescence intensity of GFP and number of beating colonies of cardiac muscle cells were determined. When nitrovin was added, the fluorescence intensity and number of beating colonies increased up to about 5 times and about 10 times higher, respectively (FIGS. 3-1 and 3-2).

[3] = system: human ES cell line (Kh−1); assay: Effect of nitrovin for promoting cardiac muscle cell differentiation of human ES cells; conditions: nitrovin 1, 5 or 20 μM added at day 6, read at day 18
Description: As described in Example 1, a vector expressing green fluorescent protein (GFP) was introduced into human ES cell line (Kh−1). The human ES cells were seeded and cultured on 6-well culture plates (Asahi Glass/5816-006: Ezview culture plate) in 1.2×10^6 cells/well. The culture medium was the same as described in Example 1. At day 6 of culture, nitrovin was added at a final concentration of 1 μM, 5 μM, or 20 μM. At day 18 of culture, fluorescence intensity of GFP was determined.

[4] = system: CMK 6.4 cynomolgus monkey ES cells; assay: Comparison of nitrovin and cytokines in cardiac muscle cell differentiation of monkey ES cells; conditions: nitrovin 5 μM day 6-14; cytokines (bFGF, BMP4, VEGF, DKK1, Activin A) day 1-14; read at day 18
From the text: Nitrovin and a mixture of cytokines (bFGF, BMP4, VEGF, DKK1, and Activin A) known as a promoter of cardiac muscle cell differentiation were compared as to increase of GFP fluorescence intensity, number of beating colonies of cardiac muscle cells, and expression of Troponin T, a marker of cardiac muscle cell differentiation.
As described in Example 1, a vector expressing green fluorescent protein (GFP) was introduced into monkey ES cell line (CMK 6.4 cynomolgus monkey ES cells). The culture medium was the same as described in Example 1. The monkey ES cells were seeded on 6-well culture plates and nitrovin (final concentration: 5 μM) or a mixture of cytokines (bFGF, BMP4, VEGF, DKK1, and Activin A) (final concentration: 5 ng/ml, 10 ng/ml, 10 ng/ml, 150 ng/ml, and 3 ng/ml, respectively) was added during day 6-14 of culture (nitrovin) or day 1-14 of culture (cytokines).

[5] = nitrovin 1, 5 or 20 μM added at day 6, read at day 18, maximal increase vs control (DMSO)

Compound: N=C(N)NN=C(/C=C/c1ccc([N+](=O)[O-])o1)/C=C/c1ccc([N+](=O)[O-])o1 [nitrovin]
- GFP fluorescence intensity (GFP expression under α-MHC promoter) [1]: high
- most effective final concentration ([2]; among 1, 5 and 20 μM, GFP fluorescence intensity and beating colonies at day 18): 5 µM
- increase of GFP fluorescence intensity [2, 5]: about 5 times
- increase of number of beating colonies of cardiac muscle cells [2, 5]: about 10 times
- GFP fluorescence intensity [3]: increase of GFP fluorescence intensity induced by nitrovin was also observed
- GFP fluorescence intensity compared to the mixture of cytokines [4]: highly effective
- expression level of Troponin T compared to the mixture of cytokines [4]: highly effective
- number of beating colonies compared to the mixture of cytokines [4]: highly effective

From patent US20120244619A1, “COMPOSITION FOR PROMOTING DIFFERENTIATION OF PLURIPOTENT STEM CELLS INTO CARDIAC MUSCLE CELLS WHICH COMPRISES NITROVIN” (KYOTO UNIVERSITY, priority 2009, published 2012)
